# Source: ChEMBL document CHEMBL1201862, “PubChem BioAssay data set” (2004)
# The source made the active and inactive calls.
# Legend:
# [1] = cells; type: functional, cell-based
# [2] = cells; type: functional, cell-based; remark: listed apart in the source
# [3] = molecular target: T1, Trace amine-associated receptor 1 (Homo sapiens, UniProt Q96RJ0); assay: Fluorescence-based cell-based high throughput dose response assay to identify agonists of the human trace amine associated receptor 1 (TAAR1).; type: functional
# T1 sequence (Q96RJ0 whole entry): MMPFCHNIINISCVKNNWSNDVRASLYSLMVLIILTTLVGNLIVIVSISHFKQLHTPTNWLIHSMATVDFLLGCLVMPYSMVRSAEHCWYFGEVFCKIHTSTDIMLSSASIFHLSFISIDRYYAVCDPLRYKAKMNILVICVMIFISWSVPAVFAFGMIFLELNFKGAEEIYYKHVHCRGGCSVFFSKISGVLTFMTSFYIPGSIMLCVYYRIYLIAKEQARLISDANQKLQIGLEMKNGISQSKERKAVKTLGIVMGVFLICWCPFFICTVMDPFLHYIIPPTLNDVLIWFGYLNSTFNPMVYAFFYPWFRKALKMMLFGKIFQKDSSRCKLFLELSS
# [4] = molecular target: T1, Trace amine-associated receptor 1; assay: Counterscreen for agonists of the human trace amine associated receptor 1 (hTAAR1): Fluorescence-based cell-based high throughput dose response assay to identify hTAAR1 agonist that also desensitize TAAR1 receptor response.; type: functional
# [5] = tested on: HEK293; assay: cells; settings: Homo sapiens
# [6] = molecular target: T2, Ubiquitin-conjugating enzyme E2 N (Homo sapiens, UniProt P61088); type: functional;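 note: Dose-response confirmation in a TR-FRET assay detecting UBC13-driven polyubiquitin chain formation, inhibition measured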
# T2 sequence (P61088 whole entry): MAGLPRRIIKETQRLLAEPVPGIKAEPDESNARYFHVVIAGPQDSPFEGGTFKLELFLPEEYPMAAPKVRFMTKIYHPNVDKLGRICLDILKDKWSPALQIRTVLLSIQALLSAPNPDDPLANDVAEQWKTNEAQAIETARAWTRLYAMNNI
# [7] = Luminescence Cell-Based Dose Confirmation HTS to Identify Activators of 5'UTR Stem-Loop Driven Alpha-Synuclein mRNA Translation in H4 Neuroglioblastoma Cells. [Related pubchem assays: 1829 (Project Summary), 1814 (Primary HTS)]; type: functional
# [8] = blockers of HIV-1 envelope-mediated cell-cell fusion – cherry-pick, dose response (AID 652057); type: functional, cell-based
# [9] = Luminescence Cell-Based Dose Response HTS to Identify Activators of Luciferase Translation or Activity in H4 […] Cells. [Related pubchem assays: 1829 (Project Summary), 1814 (Primary HTS)]; type: functional
# [10] = HIV-1 AD8 envelope cell-cell fusion blockers – cherry-pick, dose response (AID 652062); type: functional, cell-based;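 note: luciferase signal from cell-cell fusion driven by HIV-1 clade B AD8 Env; potency is for inhibitors of fusion seen as a drop in luminescence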
# [11] = blockers of HIV-1 ZM109 envelope-driven cell-cell fusion – HeLa effector, CEM target cells, luciferase, cherry-pick, dose response (AID 652058); type: functional, cell-based;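 note: luciferase signal from HIV-1 Env mediated cell-cell fusion of effector and target cells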
# [12] = molecular target: Melanocortin receptor 4 (Homo sapiens, UniProt P32245); type: functional, cell-based;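 note: Cell-based assay with luminescence read-out, confirmatory dose-response testing for agonist activity of biased ligands at MC4R; human U2OS cells with tagged receptor and beta-arrestin; potency of agonists that increase receptor coupling to beta-arrestin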
# Chain of Melanocortin receptor 4 (P32245 whole entry, the tested form may be a part): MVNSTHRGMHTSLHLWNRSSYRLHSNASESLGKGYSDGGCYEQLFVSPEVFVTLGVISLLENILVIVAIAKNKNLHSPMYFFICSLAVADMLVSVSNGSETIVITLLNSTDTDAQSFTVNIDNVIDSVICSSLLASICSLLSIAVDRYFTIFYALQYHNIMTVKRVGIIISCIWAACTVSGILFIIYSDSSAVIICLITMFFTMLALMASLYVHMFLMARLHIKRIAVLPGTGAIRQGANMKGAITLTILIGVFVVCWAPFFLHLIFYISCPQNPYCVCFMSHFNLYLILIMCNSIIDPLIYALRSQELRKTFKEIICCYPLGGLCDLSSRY
# [13] = viability loss in CEM21 cells – cell-based, CellTiter-Glo luminescence, cherry-picked, cytotoxicity control for viral fusion inhibitor project, dose response (AID 652042); type: functional;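 note: potency for signal decrease meaning cytotoxicity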
# [14] = off-target signal loss in HeLa-CEM21 co-culture – HeLa F-luc CTL cells, cherry-picked, counter-screen for HIV-1 Env fusion inhibitor project, dose response (AID 652040); type: functional, cell-based;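 note: potency for signal decrease marking cytotoxic or nonspecific inhibition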
# [15] = tested on: H4; assay: Luminescence Cell-Based Dose Response HTS to Identify Activators of 5'UTR Stem-Loop Driven Prion Protein mRNA Translation in H4 Neuroglioblastoma Cells. [Related pubchem assays: 1829 (Project Summary), 1814 (Primary HTS)]; type: functional; settings: Homo sapiens
# [16] = tested on: HEK293; assay: cells; settings: Homo sapiens; remark: listed apart in the source
# [17] = NIH3T3 cell viability loss – ATP luminescence, mouse fibroblasts, counter-screen, dose response (AID 2010); type: functional, cell-based;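 note: cells exposed to compound for about 90 hours before reading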
# [18] = Trypanosoma cruzi growth suppression in host cells – NIH3T3 host cells, beta-gal luminescence, confirmation (AID 2044); type: functional, cell-based;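 note: intracellular parasites grown in NIH/3T3 mouse fibroblasts as host cells; luminescent beta-galactosidase reporter signal from transgenic T. cruzi replicating inside host cells; inhibitors lower the luminescence signal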
# [19] = molecular target: T3, DNA repair and recombination protein RAD54-like (Homo sapiens, UniProt Q92698); assay: RAD54 Holliday junction migration blockers – biochemical, fluorescence, cherry-picked samples, dose series, confirmation (AID 651657); type: functional
# T3 sequence (Q92698 whole entry): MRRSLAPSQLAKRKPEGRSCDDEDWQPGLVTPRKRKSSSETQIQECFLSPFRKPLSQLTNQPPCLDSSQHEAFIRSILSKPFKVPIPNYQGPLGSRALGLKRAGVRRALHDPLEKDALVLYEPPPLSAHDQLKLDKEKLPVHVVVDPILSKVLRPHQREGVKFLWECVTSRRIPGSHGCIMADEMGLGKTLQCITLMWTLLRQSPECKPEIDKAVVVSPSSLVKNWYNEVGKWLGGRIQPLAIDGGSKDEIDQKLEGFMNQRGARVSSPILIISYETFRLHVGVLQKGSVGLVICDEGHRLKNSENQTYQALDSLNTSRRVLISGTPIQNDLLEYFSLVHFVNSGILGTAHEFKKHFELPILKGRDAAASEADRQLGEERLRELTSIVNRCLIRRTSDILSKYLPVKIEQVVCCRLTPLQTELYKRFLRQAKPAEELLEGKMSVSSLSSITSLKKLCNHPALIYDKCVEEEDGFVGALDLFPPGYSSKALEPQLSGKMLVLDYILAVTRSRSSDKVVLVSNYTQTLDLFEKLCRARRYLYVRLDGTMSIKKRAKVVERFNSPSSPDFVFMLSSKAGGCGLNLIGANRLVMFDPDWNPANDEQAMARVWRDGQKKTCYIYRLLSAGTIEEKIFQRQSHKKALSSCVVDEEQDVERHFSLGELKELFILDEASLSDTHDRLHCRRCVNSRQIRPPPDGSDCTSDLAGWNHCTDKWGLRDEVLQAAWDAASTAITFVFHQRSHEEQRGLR
# [20] = molecular target: DNA repair protein RAD52 homolog (Homo sapiens, UniProt P43351); type: functional, biochemical
# Chain of DNA repair protein RAD52 homolog (P43351 whole entry): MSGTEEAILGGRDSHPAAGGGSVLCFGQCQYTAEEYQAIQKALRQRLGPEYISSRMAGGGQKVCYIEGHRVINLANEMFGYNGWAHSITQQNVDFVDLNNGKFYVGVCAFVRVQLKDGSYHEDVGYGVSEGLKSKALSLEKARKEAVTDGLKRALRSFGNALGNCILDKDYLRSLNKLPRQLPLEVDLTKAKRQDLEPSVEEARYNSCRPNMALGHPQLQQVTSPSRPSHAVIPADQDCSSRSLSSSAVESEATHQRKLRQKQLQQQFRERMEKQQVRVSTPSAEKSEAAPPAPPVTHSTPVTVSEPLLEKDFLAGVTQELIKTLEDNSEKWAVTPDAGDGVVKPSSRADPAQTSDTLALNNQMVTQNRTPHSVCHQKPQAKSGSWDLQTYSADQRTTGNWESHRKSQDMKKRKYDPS
# [21] = A549 cell cytotoxicity, dose response, cytotoxicity control, plate reader, cherry-pick, antagonist series (AID 743412); type: functional, cell-based
# [22] = blockade of melanocortin 4 receptor signaling – cell-based, plate reader, cherry pick, counter-screen for LGR2 antagonist project, dose response (AID 743444); type: functional;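 note: transfected HEK 293 cells stimulated with alpha-MSH peptide; potency of inhibitors of the alpha-MSH evoked signal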
# [23] = molecular target: Prothrombin (Homo sapiens, UniProt P00734); assay: Thrombin 1536 HTS Dose Response Confirmation. [Related pubchem assays: 1046 (Thrombin 1536 HTS; hits were confirmed in this assay)]; type: functional
# [24] = blockers of bursicon-stimulated LGR2 cAMP reporter – cell-based, HEK293, CRE-luciferase reporter, cherry pick, set 2, dose response (AID 743343); type: functional;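 note: transfected cells were stimulated with diluted bursicon conditioned medium after compound addition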
# [25] = toxicity toward HepG2 liver cells – cell-based, plate reader, cherry-pick, antagonist series, cytotoxicity control, dose response (AID 743416); type: functional
# [26] = tested on: H9c2; assay: cells; type: functional, cell-based; settings: Rattus norvegicus, H9c2, Myocardium;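 note: confirmatory concentration-response retest of ultra-high-throughput screening hits for modulation of myocardial damage; cell death induced by hydrogen peroxide oxidative stress; compound pretreatment for 60 min then peroxide exposure for 2 h; potency is for protecting the cells against peroxide damage rather than for killing them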
# [27] = molecular target: T4, Heat shock factor protein 1 (Mus musculus, UniProt P38532); assay: enhancement of HSF1-driven luciferase signal – cell-based, NIH3T3, luminescence, dose retest, confirmation (AID 435004); type: functional;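 note: stress induced by proteasome inhibitor MG132 added 30 min after compound; luciferase reporter driven by HSF1 response element in NIH3T3 cells; actives raise luminescence as potentiators of the MG132 stress response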
# T4 sequence (P38532 whole entry): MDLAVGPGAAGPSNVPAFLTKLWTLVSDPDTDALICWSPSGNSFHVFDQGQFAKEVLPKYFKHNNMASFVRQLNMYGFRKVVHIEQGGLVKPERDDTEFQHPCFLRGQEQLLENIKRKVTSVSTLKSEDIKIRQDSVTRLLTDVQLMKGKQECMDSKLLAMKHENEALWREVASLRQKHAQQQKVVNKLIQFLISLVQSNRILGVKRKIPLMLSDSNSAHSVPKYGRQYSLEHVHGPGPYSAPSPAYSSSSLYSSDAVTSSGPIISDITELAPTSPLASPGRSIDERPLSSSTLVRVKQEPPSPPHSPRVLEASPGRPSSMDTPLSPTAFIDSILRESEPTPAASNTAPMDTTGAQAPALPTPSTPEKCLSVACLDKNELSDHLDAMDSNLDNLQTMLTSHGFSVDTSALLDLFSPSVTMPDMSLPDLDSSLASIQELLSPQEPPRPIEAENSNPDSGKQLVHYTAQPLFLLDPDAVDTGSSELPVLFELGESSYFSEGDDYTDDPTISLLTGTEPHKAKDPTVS
# [28] = molecular target: Beta-galactosidase (Escherichia coli, UniProt Q8VNN2); assay: Dose response counterscreen for EBI2 assay utilizing the enzyme, b-galactosidase.; type: functional
# Chain of Beta-galactosidase (Q8VNN2 whole entry): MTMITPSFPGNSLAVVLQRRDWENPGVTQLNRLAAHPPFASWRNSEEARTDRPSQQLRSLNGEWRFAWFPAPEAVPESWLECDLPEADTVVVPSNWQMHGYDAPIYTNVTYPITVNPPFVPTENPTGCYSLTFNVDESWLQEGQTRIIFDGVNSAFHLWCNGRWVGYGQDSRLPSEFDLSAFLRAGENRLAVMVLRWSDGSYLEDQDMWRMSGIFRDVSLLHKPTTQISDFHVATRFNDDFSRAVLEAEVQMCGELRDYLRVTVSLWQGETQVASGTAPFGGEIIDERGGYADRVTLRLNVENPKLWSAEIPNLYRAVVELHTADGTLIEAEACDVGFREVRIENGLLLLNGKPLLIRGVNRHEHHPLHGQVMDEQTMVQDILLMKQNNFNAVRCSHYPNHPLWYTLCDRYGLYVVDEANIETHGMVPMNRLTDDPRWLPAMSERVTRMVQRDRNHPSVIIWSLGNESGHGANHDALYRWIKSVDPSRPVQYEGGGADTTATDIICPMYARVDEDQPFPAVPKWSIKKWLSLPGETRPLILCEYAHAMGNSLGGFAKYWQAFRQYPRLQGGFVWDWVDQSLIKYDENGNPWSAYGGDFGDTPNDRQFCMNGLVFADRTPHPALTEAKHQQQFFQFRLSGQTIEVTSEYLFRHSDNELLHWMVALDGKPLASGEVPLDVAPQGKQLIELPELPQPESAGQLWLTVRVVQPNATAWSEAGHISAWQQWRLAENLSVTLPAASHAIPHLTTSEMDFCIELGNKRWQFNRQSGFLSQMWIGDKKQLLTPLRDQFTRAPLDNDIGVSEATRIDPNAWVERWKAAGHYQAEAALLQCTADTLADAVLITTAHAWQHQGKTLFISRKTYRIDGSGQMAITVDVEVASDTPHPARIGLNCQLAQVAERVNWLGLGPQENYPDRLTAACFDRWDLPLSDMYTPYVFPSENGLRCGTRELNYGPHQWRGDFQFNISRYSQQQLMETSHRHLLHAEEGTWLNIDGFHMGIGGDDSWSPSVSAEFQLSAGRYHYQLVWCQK
# [29] = activation of miR-122 Renilla sensor silencing – cell-based, Huh7 psiCHECK-miR122, Renilla luciferase, cherry-picked, dose response (AID 651956); type: functional;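 note: huh7 hepatoma cells stably carrying a psiCHECK-2 miR-122 sensor plasmid; renilla luciferase signal reporting endogenous miR-122 activity after 48 h compound exposure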
# [30] = inhibitors of EBV LMP1 NF-kappaB signaling – cell-based, luciferase reporter, luminescence, dry powder, set 2, dose response (AID 624376); type: functional
# [31] = general mammalian cell viability loss – inhibitor set, cherry-pick, set 2, cytotoxicity control for miR-122 modulator project, dose response (AID 720697); type: functional, cell-based
compound,measurement,setting,value
O=C(CC1C(=O)NCCN1Cc1ccccn1)NCCc1ccccc1F (stereo not given),EC50,[1],> 29.9 µM (inactive)
same,IC50,[2],> 29.9 µM (inactive)
same,EC50,[3],2.12 µM (active)
same,IC50,[4],5.23 µM (active)
Cc1c(CCOC(=O)CC23CC4CC(CC(C)(C4)C2)C3)sc[n+]1CC(=O)c1ccccc1,EC50,[5],> 59.6 µM (inactive)
same,IC50,[6],> 20 µM (inactive)
same,EC50,[7],> 120 µM (not active)
same,AC50,[8],3.05 µM (active)
same,EC50,[9],> 120 µM (not active)
same,AC50,[10],12.7 µM (active)
same,AC50,[11],3.85 µM (active)
same,EC50,[12],> 89.2 µM (inactive)
same,AC50,[13],16.8 µM (active)
same,AC50,[14],4.35 µM (active)
same,EC50,[15],> 120 µM (not active)
same,EC50,[16],> 59.6 µM (inactive)
Cc1ccccc1C(=O)N[C@H](C(=O)N1CCC[C@H]1C(=O)NCCc1ccccc1Cl)c1ccccc1,EC50,[1],> 29.9 µM (inactive)
same,IC50,[2],> 29.9 µM (inactive)
same,EC50,[3],6.12 µM (active)
same,IC50,[4],7.72 µM (active)
CCCN(CCC)CCCNC(=S)Nc1ccc2nc(N3CCN(C)CC3)cc(C)c2c1,EC50,[17],> 60 µM (not active)
same,EC50,[18],2.24 µM (active)
same,AC50,[19],31.9 µM (active)
same,AC50,[20],5.96 µM (active)
COc1cc(C(=O)Nc2nc(-c3cccs3)cs2)cc(OC)c1OC,AC50,[21],> 52 µM (inactive)
same,AC50,[22],27.7 µM (active)
same,IC50,[23],2.64 µM (active)
same,AC50,[24],23.3 µM (active)
same,AC50,[25],> 52 µM (inactive)
same,IC50,[26],> 79 µM (inactive)
CN1CCN(C(=O)c2cc3sc4ccccc4c3s2)CC1,EC50,[27],> 260 µM (inactive)
same,IC50,[28],> 80 µM (inactive)
COc1cccc(S(=O)(=O)N(C)C[C@@H]2Oc3cc(C4=CCCCC4)ccc3S(=O)(=O)N([C@H](C)CO)C[C@H]2C)c1,AC50,[29],30.2 µM (active)
same,AbsAC35,[30],85.29 µM
same,AC50,[31],0.502 µM (active)
